We go through 8 molecules from ChEMBL document CHEMBL4028837, “Acetanilide and bromoacetyl-lysine derivatives as activators for human histone deacetylase 8” (Bioorg Med Chem Lett, 2017).

The first assay has as its target T1, Histone deacetylase 8 (Homo sapiens) (UniProt Q9BY41).
T1 sequence (whole entry): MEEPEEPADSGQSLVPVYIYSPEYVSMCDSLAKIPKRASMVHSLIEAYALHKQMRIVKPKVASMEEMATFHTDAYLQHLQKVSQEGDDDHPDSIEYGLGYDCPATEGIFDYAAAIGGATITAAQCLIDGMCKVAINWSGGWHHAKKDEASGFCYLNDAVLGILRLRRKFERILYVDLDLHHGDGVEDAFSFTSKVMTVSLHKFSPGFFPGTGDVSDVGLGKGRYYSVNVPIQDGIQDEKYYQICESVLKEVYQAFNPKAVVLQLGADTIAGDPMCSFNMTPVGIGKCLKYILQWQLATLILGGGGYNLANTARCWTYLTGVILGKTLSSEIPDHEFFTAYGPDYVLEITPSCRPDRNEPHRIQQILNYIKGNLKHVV
Kind of assay: Activation of human HDAC8 deacetylation activity assessed as ratio of Kcat to Km for substrate at 50 uM using AMC less CH3CONH-FG-(Nepsilon-acetyl-lysine)-FSW-CONH2 as substrate measured after 1.5 mins by reverse phase HPLC method relative to control.
Regarding `CC(C)(C)OC(=O)N[C@@H](CCCCNC(=O)CBr)C(=O)Nc1ccccc1`, the fold change (FC) came to 2.6.

The target in the next assay is T1, Histone deacetylase 8 (Homo sapiens). In words: Activation of human HDAC8 deacetylation activity assessed as decrease in substrate Kcat at 50 uM using AMC less CH3CONH-FG-(Nepsilon-acetyl-lysine)-FSW-CONH2 as substrate measured after 1.5 mins by reverse phase HPLC method relative to control. Further details: scale not given: the % may be the effect or the level left.
Regarding `CC(C)(C)OC(=O)N[C@@H](CCCCNC(=O)CBr)C(=O)Nc1ccccc1`, the Activity was under 40%.

The target is the same in the next assay. Kind of assay: Activation of human HDAC8 deacetylation activity at 50 uM using AMC-Fluor-de-Lys-HDAC8 as substrate measured after 10 mins by reverse phase HPLC method relative to control.
Turning to `CC(=O)Nc1cccc(C(F)(F)F)c1`, the fold change (FC) was found to be 1.7.

For `CC(=O)Nc1ccccc1C(F)(F)F`, the fold change (FC) was found to be 1.2.

In the case of `O=C(Nc1ccccc1C(F)(F)F)C(F)(F)F`, the fold change (FC) came to 1.4.

With `O=C(Nc1ccc(C(F)(F)F)cc1)C(F)(F)F`, the fold change (FC) was 1.1.

For `O=C(NC(=S)Nc1ccccc1)c1ccccc1`, the fold change (FC) was determined as 2.2.

On to `O=C(Nc1cccc(C(F)(F)F)c1)C(F)(F)F`, for which the fold change (FC) was determined as 1.7.

As to `CC(=O)Nc1ccc(C(F)(F)F)cc1`, the fold change (FC) came to 1.7.

With `CC(C)(C)OC(=O)N[C@@H](CCCCNC(=O)CBr)C(=O)Nc1ccccc1`, the fold change (FC) amounted to 2.8.

The target is the same in another assay. Kind of assay: Activation of human HDAC8 deacetylation activity assessed as reduction in substrate Km at 50 uM using AMC-Fluor-de-Lys-HDAC8 as substrate measured after 1.5 mins by reverse phase HPLC method relative to control.
`CC(C)(C)OC(=O)N[C@@H](CCCCNC(=O)CBr)C(=O)Nc1ccccc1`: the fold change (FC) worked out at 3.5.

The target is the same in another assay. In words: Activation of human HDAC8 deacetylation activity at 50 uM using AMC less CH3CONH-FG-(Nepsilon-acetyl-lysine)-FSW-CONH2 as substrate measured after 10 mins by reverse phase HPLC method relative to control.
With `CC(=O)Nc1cccc(C(F)(F)F)c1`, the fold change (FC) came to 1.3.

As for `CC(=O)Nc1ccccc1C(F)(F)F`, the fold change (FC) turned out to be 1.5.

With `O=C(Nc1ccccc1C(F)(F)F)C(F)(F)F`, the fold change (FC) amounted to 1.2.

On to `O=C(Nc1ccc(C(F)(F)F)cc1)C(F)(F)F`, for which the fold change (FC) was 1.4.

On to `O=C(NC(=S)Nc1ccccc1)c1ccccc1`, for which the fold change (FC) is 0.5.

For `O=C(Nc1cccc(C(F)(F)F)c1)C(F)(F)F`, the fold change (FC) was 2.7.

Take `CC(=O)Nc1ccc(C(F)(F)F)cc1`: the fold change (FC) came to 1.4.

As for `CC(C)(C)OC(=O)N[C@@H](CCCCNC(=O)CBr)C(=O)Nc1ccccc1`, the fold change (FC) amounted to 5.6.

For another assay the target is unchanged. Kind of assay: Activation of human HDAC8 deacetylation activity assessed as reduction in substrate Km at 50 uM using AMC less CH3CONH-FG-(Nepsilon-acetyl-lysine)-FSW-CONH2 as substrate measured after 1.5 mins by reverse phase HPLC method relative to control.
In the case of `CC(C)(C)OC(=O)N[C@@H](CCCCNC(=O)CBr)C(=O)Nc1ccccc1`, the fold change (FC) came out at 3.6.

The next assay has the same target. In words: Activation of human HDAC8 deacetylation activity assessed as reduction in substrate Kcat at 50 uM using AMC-Fluor-de-Lys-HDAC8 as substrate measured after 1.5 mins by reverse phase HPLC method relative to control.
For the molecule `CC(C)(C)OC(=O)N[C@@H](CCCCNC(=O)CBr)C(=O)Nc1ccccc1`, the fold change (FC) turned out to be 13.

Another assay has the same target. In words: Activation of human HDAC8 deacetylation activity assessed as ratio of Kcat to Km for substrate at 50 uM using AMC-Fluor-de-Lys-HDAC8 as substrate measured after 1.5 mins by reverse phase HPLC method relative to control.
With `CC(C)(C)OC(=O)N[C@@H](CCCCNC(=O)CBr)C(=O)Nc1ccccc1`, the fold change (FC) turned out to be 3.7.

A further assay is filed under the species Homo sapiens. In words: Activation of HDAC deacetylation activity in human HeLa nuclear extract at 50 uM using AMC less CH3CONH-RH-(Nepsilon-acetyl-lysine)-(Nepsilon-acetyl-lysine)-CONH2 as substrate measured after 10 mins by reverse phase HPLC method relative to control.
On to `CC(=O)Nc1cccc(C(F)(F)F)c1`, for which the fold change (FC) was found to be 0.81.

For the molecule `CC(=O)Nc1ccccc1C(F)(F)F`, the fold change (FC) was 1.45.

Consider `O=C(Nc1ccccc1C(F)(F)F)C(F)(F)F`, for which the fold change (FC) was 1.22.

With `O=C(Nc1ccc(C(F)(F)F)cc1)C(F)(F)F`, the fold change (FC) came out at 0.64.

On to `O=C(NC(=S)Nc1ccccc1)c1ccccc1`, for which the fold change (FC) turned out to be 0.58.

Turning to `O=C(Nc1cccc(C(F)(F)F)c1)C(F)(F)F`, the fold change (FC) worked out at 0.54.

In the case of `CC(=O)Nc1ccc(C(F)(F)F)cc1`, the fold change (FC) worked out at 0.83.

In the case of `CC(C)(C)OC(=O)N[C@@H](CCCCNC(=O)CBr)C(=O)Nc1ccccc1`, the fold change (FC) was 1.22.

The next assay is filed under the species Homo sapiens. Kind of assay: Activation of HDAC deacetylation activity in human HeLa nuclear extract at 50 uM using AMC-Fluor-de-Lys-HDAC8 as substrate measured after 5 mins by reverse phase HPLC method relative to control.
As to `CC(=O)Nc1cccc(C(F)(F)F)c1`, the fold change (FC) worked out at 0.89.

Turning to `CC(=O)Nc1ccccc1C(F)(F)F`, the fold change (FC) is 0.98.

In the case of `O=C(Nc1ccccc1C(F)(F)F)C(F)(F)F`, the fold change (FC) stood at 0.87.

Regarding `O=C(Nc1ccc(C(F)(F)F)cc1)C(F)(F)F`, the fold change (FC) was 0.93.

For `O=C(NC(=S)Nc1ccccc1)c1ccccc1`, the fold change (FC) is 0.69.

In the case of `O=C(Nc1cccc(C(F)(F)F)c1)C(F)(F)F`, the fold change (FC) was 0.96.

With `CC(=O)Nc1ccc(C(F)(F)F)cc1`, the fold change (FC) was found to be 0.93.

`CC(C)(C)OC(=O)N[C@@H](CCCCNC(=O)CBr)C(=O)Nc1ccccc1`: the fold change (FC) stood at 1.09.
